According to patent publication US3960949A, “1,2-Biguanides” (Schering Aktiengesellschaft, priority 1971, dated 1976):

Key:
in vivo = settings: mouse, po
Method: Five days after administration of the substance, the number of surviving animals was determined. […] The LD50 values were in each case based on the free base.

[1] = in vivo; cited from earlier work

Row | Compound | LD50 at 120 h (in vivo) [mg/kg] | gastrointestinal compatibility [1]
1 | CCCCN/C(=N\CC)NC(=N)N [1-Ethyl-2-n-butylbiguanide] | > 2000 | 
2 | [H]/N=C(/N)N/C(=N/[H])NCCc1ccccc1 [Phenformin, 1-β-phenethylbiguanide] |  | gastrointestinal incompatibility
3 | CCN=C(NC(=N)N)N(CC)CC.O=[N+]([O-])O [1,1,2-Triethylbiguanide, 1,1,2-Triethylbiguanide Nitrate] | > 2000 | 
4 | Br.CC(C)N=C(NC(=N)N)NC(C)C [1,2-Diisopropylbiguanide, 1,2-Diisopropylbiguanide Hydrobromide] | > 2000 | 
5 | CCCCNC(=N)NC(=N)N [1-Butylbiguanide, 1-butylbiguanide] |  | gastrointestinal incompatibility
6 | CCCN=C(NC)NC(=N)N.Cl [1-Methyl-2-n-propylbiguanide, 1-Methyl-2-n-propylbiguanide Hydrochloride] | > 2000 | 
7 | CN/C(=N\CCc1ccccc1)NC(=N)N [1-Methyl-2-β-phenethylbiguanide, 2-Methyl-1-β-phenethylbiguanide Nitrate] | 2830 | 
